How the values were obtained:
lung = test: orthotopic rat left lung transplantation, cGMP series (hemodynamics, oxygenation, recipient survival); assay type: in vivo, rat (male Lewis)
Procedure: Orthotopic rat left lung transplantation was accomplished using inbred male Lewis rats (250-300 gms), using a modification of a previously described technique^29. The donor rat was anesthetized and heparinized (500 U intravenously), and endotracheal intubation was performed by inserting a 16 gauge angiocatheter into the trachea using blunt cervical dissection, after which the rat was ventilated with room air at a constant rate (100 breaths/minute) and tidal volume (2.5 ml), using a Harvard rodent ventilator. […] The pulmonary artery (PA) and pulmonary vein (PV) were divided, the bronchus ligated with the lung partially inflated and then divided, and the lung removed. The vascular stumps were each pulled through a small plastic cylinder, and a lip of vessel was turned back around the edge and secured in place with a suture to form a "cuff." A small plastic cylinder was inserted into the bronchial stump and secured, and the lung was then wrapped in gauze and submerged in cold preservation solution for the desired interval.
The recipient rat (gender/size/strain-matched) was similarly anesthetized and intubated (ventilated with 100% oxygen), but not heparinized. A left thoracotomy was performed, the hilum was dissected, and the left bronchus, PA, and PV were isolated, cross-clamped, divided and the native lung was removed from the field. The PA and PV stumps were rinsed with heparinized saline to remove any clot. The donor lung was brought onto the surgical field, and the cylinder (bronchus) and cuffs (PA and PV) were connected rapidly to their respective structures with a simple staying suture. This cuff technique permitted rapid approximation of donor and recipient tissues with no contact of a foreign substance with the luminal vascular surface. The hilar cross-clamp was released, re-establishing blood flow, and the bronchus tie was removed, enabling gas exchange. A snare was then passed around the right PA, and a Millar catheter (2F; Millar Instruments,Houston, Tex.) was introduced through a small hole (surrounded by a pursestring) into the main PA; similarly, a Millar catheter was introduced into the left atrium (LA). A flow probe (Transonics, Ithaca, N.Y.) was then placed around the main PA. Arterial blood gas sampling performed via the left femoral artery.
Online hemodynamic monitoring was accomplished using MacLab and a Macintosh IIci computer. The hemodynamic parameters that were measured included PA pressure (mm Hg), blood flow (ml/min), LA pressure (mm Hg), as well as arterial oxygen tension (mm Hg) during inspiration of 100% oxygen; pO2 was analyzed with a model ABL-2 dissolved gas analyzer (Radiometer, Copenhagen, Denmark). Pulmonary vascular resistances (PVRs) were calculated as [mean PA pressure-LA pressure]/PA flow. The native lung supported the recipient during the period of warm ischemia (the period during which the donor lung was removed from cold preservation until the time of reperfusion, <10 min. in all instances), but immediately following rapid hemodynamic instrumentation and acquisition of baseline measurements, the native (right) PA was then ligated, and serial measurements (representative solely of the transplanted lung) were taken every five minutes for 30 minutes. Because the native lung was effectively removed from the circulation by ligation of the right PA, these measurements represent function of the transplanted lung. Recipient death was identified by the cessation of cardiac mechanical activity observed through the thoracotomy.
Preservation solutions were freshly made and coded by a technician not otherwise involved in the experiments, according to a general plan which included both control and experimental groups. […]

[1] = test system: neutrophil infiltration of lung graft; test: lung graft myeloperoxidase assay, cGMP series; assay type: in vivo, rat; conditions: 6 h in EC then transplantation
Procedure: Thirty minutes following restoration of blood flow, transplanted lungs were excised, rinsed briskly in physiologic saline, and snap frozen in liquid nitrogen until the time of assay. These lungs were then homogenized in phosphate buffer (50 mM; pH 6.0, 5 ml/gm of tissue) containing hexadecyltrimethylammonium bromide (0.5%; HTAB, [Sigma]) and frozen at -80° C. The myeloperoxidase assay was performed, as described^32, by thawing the sample, centrifuging at 40,000 g for 15 minutes at 4° C., and decanting the supernatant, which was assayed for myeloperoxidase activity using standard chromogenic spectrophotometric technique: test sample (0.03 ml) was added to sample buffer (0.97 ml of 50 mM phosphate buffer, pH 6.0) containing O-dianisidine dihydrochloride (Sigma), hydrogen peroxide (0.006%), and change in absorbance at 460 nm was measured over 1 min (increase in OD was linear over this time interval).

[2] = test system: platelet accumulation in lung graft; test: graft platelet accumulation (111Indium-labelled platelets); assay type: in vivo, rat; conditions: NTG 0.1 mg/mL in EC, 6 h
Procedure: Graft platelet accumulation was determined using ^111 Indium-labelled platelets, prepared as described^39. Blood (5.0 mL) was taken from a gender/strain matched donor rat and heparinized (2500 units). Platelets were isolated by differential centrifugation, first at 300 g for 5 minutes to obtain platelet-rich plasma, which was then washed 3 times at 2,000 g for 15 minutes in 10 ml of acid-citrate-dextrose-anticoagulant (ACD-A; citric acid 38 mM, sodium citrate 75 mM, glucose 135 mM). The pellet was suspended in 5 mL of ACD-A, centrifuged at 100 g for 5 minutes to remove contaminating red blood cells, and the supernatant collected. ^111 Indium oxyquinoline (70 μL of 1 mCi/mL, Amersham Mediphysics, Arlington Heights, Ill.) was added with gentle shaking for 30 minutes at room temperature. […] One minute following platelet infusion (immediately prior to reperfusion), 0.5 mL of blood was taken from the left atrium to determine blood radioactivity, to ascertain blood platelet concentrations to normalize for variations in blood loss during surgery. Five minutes following reperfusion, the native right pulmonary artery was ligated, the graft was removed 10 minutes thereafter, and ^111 Indium-platelet deposition quantified by gamma counting. Platelet accumulation was expressed as the ratio of graft radioactivity to blood radioactivity normalized to dry weight.

[3] = test system: graft tissue oxidant stress; test: thiobarbituric acid reactive substances (TBARs); assay type: in vivo, rat; conditions: NTG in EC, 6 h
Procedure: Thirty minutes following ligation of the native right pulmonary artery, or at the time of recipient death, transplanted lungs were removed, rinsed briskly in physiologic saline, and snap frozen in liquid nitrogen until the time of myeloperoxidase or TBARs assay.
The assay was performed by homogenizing tissue in 1.15% KCl (10 ml/gm of tissue). To 0.2 ml of 10% (w/v) tissue homogenate, the following was added; 0.2 mL of 8.1% sodium dodecyl sulfate (SDS; Sigma), 1.5 mL of 20% acetic acid solution (pH 3.5), 1.5 mL of 0.8% aqueous solution of thiobarbituric acid (Sigma), and 0.6 mL of double distilled water. This mixture was heated to 95° C. for 60 minutes followed by rapid cooling to room temperature. An organic extraction was performed by adding 1.0 mL of double distilled water and 5.0 mL of n-butanol:pyridine (15:1, v/v), vortexing, and then centrifuging at 4000 rpm for 10 minutes. The water-immiscible (organic) layer was recovered for measurement of absorbance at 532 nm. Experiments were performed using 1,1,3,3,-tetramethoxypropane as a standard, with the level of lipid peroxides expressed as nmol of malondialdehyde (MDA)/mg protein. Protein content was determined by the method of Lowry et. al^38.

heart = conditions: in vivo; cited from earlier work
[4] = 6 h in EC, 8-Br-cGMP 0.5 mM where added

| Compound | recipient survival (lung; 4 h preservation in LR) | arterial oxygenation (lung; [4]) | pulmonary arterial blood flow (lung; [4]) | pulmonary vascular resistance (lung; [4]) | recipient survival (lung; [4]) | concentration of maximal beneficial effect (lung; range 0.005 to 0.5 mM, 6 h in EC) | myeloperoxidase activity (dAbs 460 nm/min) [1] | graft platelet accumulation [2] | graft oxidant stress, TBARs [3] | effect in cardiac ischemia models (heart) |
| --- | --- | --- | --- | --- | --- | --- | --- | --- | --- | --- |
| Nc1nc2c(nc(Br)n2[C@@H]2O[C@@H]3COP(=O)(O)O[C@H]3[C@H]2O)c(=O)[nH]1 [8-Br-cGMP, 8-bromoguanosine-3'5' cyclic monophosphate] | 86% | 474±41 mm Hg | 26 ± 2.3 mL/min | 1.1±0.14 Woods units×10^-3 | 100% | 0.5 mM | 1.75±0.13 dAbs 460 nm/min | – | – | – |
| O=[N+]([O-])OCC(CO[N+](=O)[O-])O[N+](=O)[O-] [NTG, nitroglycerin] | – | – | – | – | – | – | – | significant decline in both neutrophil and platelet accumulation | reduced graft oxidant stress | blunt myocardial injury and neutrophil accumulation during reperfusion |

Source: patent US5552267A, “Solution for prolonged organ preservation” (priority 1994, dated 1996)
